Data as given in US11078221B2, “Phosphorodiamidates and other phosphorus derivatives of fingolimod and related S1P receptor modulators” (UNIVERSITY COLLEGE CARDIFF CONSULTANTS LTD, priority 2017, dated 2021).

What was measured:
[1] = system: human NPC1 mutant fibroblasts; conditions: cited from earlier work
NPC1 and −2 = conditions: mice, clinically relevant doses, cited from earlier work
Carboxypeptidase Y = target: T1, Carboxypeptidase Y (Saccharomyces cerevisiae, UniProt P00729); test: Carboxypeptidase Y experiment (31P NMR); type: in vitro ADME
T1 construct: purchased Aldrich
T1 sequence (P00729 112-532): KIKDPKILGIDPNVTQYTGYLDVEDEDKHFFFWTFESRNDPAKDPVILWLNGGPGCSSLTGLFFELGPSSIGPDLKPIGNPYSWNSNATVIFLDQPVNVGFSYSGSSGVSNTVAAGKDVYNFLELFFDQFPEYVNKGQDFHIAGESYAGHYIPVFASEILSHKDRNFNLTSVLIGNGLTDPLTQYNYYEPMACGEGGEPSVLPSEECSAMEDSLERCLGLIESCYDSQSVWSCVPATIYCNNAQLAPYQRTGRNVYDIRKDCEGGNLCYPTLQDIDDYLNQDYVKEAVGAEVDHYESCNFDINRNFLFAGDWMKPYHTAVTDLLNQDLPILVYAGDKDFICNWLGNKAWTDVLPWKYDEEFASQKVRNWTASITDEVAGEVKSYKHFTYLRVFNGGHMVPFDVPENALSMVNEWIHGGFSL
Experimental: Blank in acetone d6 alone (No trizma): 1-2 mg of pentyl (2S)-2-[({2-amino-3-hydroxy-2-[2-(4-octylphenethyl]propoxy}(4-methoxyphenoxy) phosphoryl)amino]propanoate is dissolved in 150 μL of acetone d6 and the solution transferred into an NMR tube. The ^31P spectrum is recorded (16 scans are sufficient).
The sample in the NMR tube is diluted with 100 μL of Trizma buffer (pH=7.6). 0.1 mg of Carboxypeptidase Y (Aldrich) is then dissolved in 150 μL of Trizma buffer and the resulting solution is added to the NMR tube. ^31P NMR spectra are then recorded (512 scans, 600 sec delay, 20 experiments.) FIG. 1

B95a cell lysate = B95a cell lysate experiment (31P NMR); type: in vitro ADME; conditions: pH 7.6, 37 Celsius, FIG. 4
Experimental: (§1) 4 mg of pentyl (2S)-2-[({2-amino-3-hydroxy-2-[2-(4-octylpheny)ethyl]propoxy}(4-methoxyphenoxy)phosphoryl)amino]propanoate are dissolved in a mixture of 150 μL of acetone d6 and 100 μL of trizma buffer (pH=7.6). The solution is transferred into an NMR tube. The ^31P spectrum is recorded (64 scans).
(§2) To the blank sample in the NMR tube 150 μL of B95a cell lysate (6.000.000 cell/m L) are added and then ^31P spectra are recorded at 37 Celsius (512 scans, 600 sec delay, 20 experiments).

[2] = B95a cell lysate experiment (31P NMR); type: in vitro ADME; conditions: marmoset (cotton-top tamarin), B95a cell lysate; pH 7.6, 37 Celsius
Experimental: as §1, §2

[3] = Human serum stability (31P NMR); type: in vitro ADME

| SMILES | accumulation of cholesterol and glycosphingolipids [1] | expression of NPC1 and −2 [1] | cholesterol (NPC1 and −2; SphK2-dependent) | expression of NPC1 and −2 (NPC1 and −2; brain and liver) | activation of the prodrug by the esterase (Carboxypeptidase Y; acetone d6 / Trizma buffer, Carboxypeptidase Y, FIG. 1) | half-life (Carboxypeptidase Y; yeast (Saccharomyces cerevisiae), Carboxypeptidase Y in Trizma buffer / acetone d6, acetone d6 / Trizma buffer pH 7.6, read-out: half-life in the presence of Carboxypeptidase Y) [h] | processing in B95a cell lysate (B95a cell lysate) | half-life at 10 mg/mL [2] [h] | stability in human serum ([3]; DMSO d6 / Trizma buffer pH 7.6) | time over which the prodrug is stable in human serum ([3]; FIG. 3) |
| --- | --- | --- | --- | --- | --- | --- | --- | --- | --- | --- |
| CCCCCCCCc1ccc(CCC(N)(CO)CO)cc1 [FTY720, Fingolimod] | significantly reduced the accumulation of cholesterol and glycosphingolipids | greatly increased expression of NPC1 and −2 | decreased cholesterol | increased expression of NPC1 and −2 in brain and liver |  |  |  |  |  |  |
| CCCCCCCCc1ccc(CCC(N)(CO)COP(=O)(N[C@@H](C)C(=O)OCCCCC)Oc2ccc(OC)cc2)cc1 (stereo partly drawn) [pentyl (2S)-2-[({2-amino-3-hydroxy-2-[2-(4-octylphenyl)ethyl]propoxy}(4-methoxyphenoxy)phosphoryl)amino]propanoate] |  |  |  |  | rapidly activated by the esterase | 35.1 | processed to release the active monophosphorylated analogue | 11.1 | stable in human serum | at least 665 minutes |
